Experimental data as given in US9512105B2, “1-substituted 4-arylpiperazine as kappa opioid receptor antagonists” (RESEARCH TRIANGLE INSTITUTE, priority 2011, dated 2016).
Structures can show the parent of a compound that is named as a salt. Where two headings read alike, the source gives them in different places. Values belong to the compound of their own block, whether it stands above or below them.

How the values were obtained:
[1] = molecular target: T1, cloned human μ-opioid receptor (Homo sapiens, UniProt P35372); assay: Inhibition of DAMGO-stimulated [35S]GTPγS binding; format: biochemical
T1 construct: expressed in transfected cells
T1 sequence (P35372 whole entry): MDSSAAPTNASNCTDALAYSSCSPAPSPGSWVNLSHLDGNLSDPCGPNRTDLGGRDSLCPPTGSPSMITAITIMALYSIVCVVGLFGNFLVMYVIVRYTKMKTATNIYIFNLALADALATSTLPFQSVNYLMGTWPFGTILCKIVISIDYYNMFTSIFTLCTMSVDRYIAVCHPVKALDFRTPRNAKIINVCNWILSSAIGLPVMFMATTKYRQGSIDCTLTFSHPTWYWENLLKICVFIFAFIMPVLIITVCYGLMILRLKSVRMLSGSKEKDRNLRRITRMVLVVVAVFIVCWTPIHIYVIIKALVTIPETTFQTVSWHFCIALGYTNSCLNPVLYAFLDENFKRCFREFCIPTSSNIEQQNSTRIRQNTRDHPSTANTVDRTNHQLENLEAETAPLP

[2] = molecular target: T2, cloned human δ-opioid receptor (Homo sapiens, UniProt P41143); assay: Inhibition of DPDPE-stimulated [35S]GTPγS binding; format: biochemical
T2 construct: expressed in transfected cells
T2 sequence (P41143 whole entry): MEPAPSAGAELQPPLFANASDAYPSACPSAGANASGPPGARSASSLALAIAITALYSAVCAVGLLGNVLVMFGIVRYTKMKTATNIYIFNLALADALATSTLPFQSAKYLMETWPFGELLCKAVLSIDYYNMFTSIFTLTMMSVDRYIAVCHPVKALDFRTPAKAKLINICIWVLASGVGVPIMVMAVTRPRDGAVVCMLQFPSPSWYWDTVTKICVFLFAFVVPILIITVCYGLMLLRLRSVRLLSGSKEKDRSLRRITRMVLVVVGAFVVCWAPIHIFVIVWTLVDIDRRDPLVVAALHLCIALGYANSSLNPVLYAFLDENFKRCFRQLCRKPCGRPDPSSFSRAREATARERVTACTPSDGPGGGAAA

[3] = molecular target: T3, cloned human κ-opioid receptor (Homo sapiens, UniProt P41145); assay: Inhibition of U69,593-stimulated [35S]GTPγS binding; format: biochemical; conditions: for efficacy for the κ opioid receptor in words: [35S]GTPγS in vitro functional assay; for δ/κ / μ/κ: ratio of Ke values; for δ/κ: selectivity for κ relative to δ; for μ/κ: selectivity for κ relative to μ
T3 construct: expressed in transfected cells
T3 sequence (P41145 whole entry): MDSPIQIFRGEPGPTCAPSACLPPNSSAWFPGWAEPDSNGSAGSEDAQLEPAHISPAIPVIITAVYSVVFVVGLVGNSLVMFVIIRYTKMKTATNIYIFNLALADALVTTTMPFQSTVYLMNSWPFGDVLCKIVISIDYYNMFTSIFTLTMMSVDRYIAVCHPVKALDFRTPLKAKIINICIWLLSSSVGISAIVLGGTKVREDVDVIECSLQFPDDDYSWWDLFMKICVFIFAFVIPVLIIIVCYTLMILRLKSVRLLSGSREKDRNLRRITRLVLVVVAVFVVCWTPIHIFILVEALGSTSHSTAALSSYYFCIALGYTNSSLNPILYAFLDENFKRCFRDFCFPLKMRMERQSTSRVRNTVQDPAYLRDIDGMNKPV

[4] = antagonism of DAMGO-stimulated [35S]GTPγS binding, cloned human μ receptor
[5] = antagonism of DPDPE-stimulated [35S]GTPγS binding, cloned human δ receptor
[6] = antagonism of U69,593-stimulated [35S]GTPγS binding, cloned human κ receptor
[7] = antagonism of DAMGO-stimulated [35S]GTPγS binding, cloned human μ receptor, read-out: μ, DAMGO Ke
[8] = antagonism of DPDPE-stimulated [35S]GTPγS binding, cloned human δ receptor, read-out: δ, DPDPE Ke
[9] = antagonism of U69,593-stimulated [35S]GTPγS binding, cloned human κ receptor, read-out: κ, U69,593 Ke

SMILES: CC(C)[C@@H](CN1CCN(c2cccc(O)c2)[C@@H](C)C1)NC(=O)c1ccc(Oc2ccccc2)cc1.Cl.Cl [Compound 6a, N-(1S)-1-{[(3S)-4-(3-Hydroxyphenyl)-3-methylpiperazin-1-yl]methyl}-2-methylpropyl-4-phenoxybenzamide Dihydrochloride]
μ, DAMGO Ke [1, 4]: 51 ± 14.9 nM
δ, DPDPE Ke [2, 5]: 570 ± 79 nM
efficacy for the κ opioid receptor in words [3]: high efficacy (low Ke values)
κ, U69,593 Ke [3, 6]: 0.85 ± 0.35 nM

SMILES: Cc1ccc(Oc2ccc(C(=O)N[C@H](CN3CCN(c4cccc(O)c4)[C@@H](C)C3)C(C)C)cc2)cc1.Cl.Cl [Compound 6b, N-(1S)-1-{[(3S)-4-(3-Hydroxyphenyl)-3-methylpiperazin-1-yl]methyl}-2-methylpropyl-4-(4-methylphenoxy)benzamide Dihydrochloride]
μ, DAMGO Ke [1, 4]: 20 ± 6 nM
δ, DPDPE Ke [2, 5]: 188 ± 33 nM
efficacy for the κ opioid receptor in words [3]: high efficacy (low Ke values)
κ, U69,593 Ke [3, 6]: 0.69 ± 0.25 nM
δ/κ [3]: 275
μ/κ [3]: 29

SMILES: CC(C)[C@@H](CN1CCN(c2cccc(O)c2)[C@@H](C)C1)NC(=O)c1ccc(Oc2cccc(F)c2)cc1.Cl.Cl [Compound 6c, N-(1S)-1-{[(3S)-4-(3-Hydroxyphenyl)-3-methylpiperazin-1-yl]methyl}-2-methylpropyl-4-(3-fluorophenoxy)benzamide Dihydrochloride]
μ, DAMGO Ke [1, 4]: 30 ± 9.0 nM
δ, DPDPE Ke [2, 5]: 174 ± 4.5 nM
κ, U69,593 Ke [3, 6]: 1.48 ± 0.51 nM
δ/κ [3]: 118
μ/κ [3]: 16

SMILES: Cc1cccc(Oc2ccc(C(=O)N[C@H](CN3CCN(c4cccc(O)c4)[C@@H](C)C3)C(C)C)cc2)c1.Cl.Cl [Compound 6d, N-(1S)-1-{[(3S)-4-(3-Hydroxyphenyl)-3-methylpiperazin-1-yl]methyl}-2-methylpropyl-4-(3-methylphenoxy)benzamide Dihydrochloride]
μ, DAMGO Ke [1, 4]: 18 ± 6 nM
δ, DPDPE Ke [2, 5]: 62 ± 20 nM
efficacy for the κ opioid receptor in words [3]: high efficacy (low Ke values)
κ, U69,593 Ke [3, 6]: 0.18 ± 0.06 nM

SMILES: COc1ccccc1Oc1ccc(C(=O)N[C@H](CN2CCN(c3cccc(O)c3)[C@@H](C)C2)C(C)C)cc1.Cl.Cl [Compound 6e, N-(1S)-1-{[(3S)-4-(3-Hydroxyphenyl)-3-methylpiperazin-1-yl]methyl}-2-methylpropyl-4-(2-methoxyphenoxy)benzamide Dihydrochloride]
μ, DAMGO Ke [1, 4]: 127 ± 78 nM
δ, DPDPE Ke [2, 5]: 869 ± 205 nM
κ, U69,593 Ke [3, 6]: 5.60 ± 1.41 nM
δ/κ [3]: 155
μ/κ [3]: 25

SMILES: COc1cccc(Oc2ccc(C(=O)N[C@H](CN3CCN(c4cccc(O)c4)[C@@H](C)C3)C(C)C)cc2)c1.Cl.Cl [Compound 6f, N-(1S)-1-{[(3S)-4-(3-Hydroxyphenyl)-3-methylpiperazin-1-yl]methyl}-2-methylpropyl-4-(3-methoxyphenoxy)benzamide Dihydrochloride]
μ, DAMGO Ke [1, 4]: 33 ± 14 nM
δ, DPDPE Ke [2, 5]: 1502 ± 412 nM
efficacy for the κ opioid receptor in words [3]: high efficacy (low Ke values)
κ, U69,593 Ke [3, 6]: 0.63 ± 0.13 nM
δ/κ [3]: 2384
μ/κ [3]: 52

SMILES: CC(C)[C@@H](CN1CCN(c2cccc(O)c2)[C@@H](C)C1)NC(=O)c1ccc(Oc2ccc(O)cc2)cc1.Cl.Cl [Compound 6g, N-(1S)-1-{[(3S)-4-(3-Hydroxyphenyl)-3-methylpiperazin-1-yl]methyl}-2-methylpropyl-4-(4-hydroxyphenoxy)benzamide Dihydrochloride]
μ, DAMGO Ke [1, 4]: 71 ± 19 nM
δ, DPDPE Ke [2, 5]: 1696 ± 377 nM
κ, U69,593 Ke [3, 6]: 8.6 ± 3.7 nM
δ/κ [3]: 1.97
μ/κ [3]: 8

SMILES: CC(C)[C@@H](CN1CCN(c2cccc(O)c2)[C@@H](C)C1)NC(=O)c1ccc(Oc2ccccc2O)cc1.Cl.Cl [Compound 6h, N-(1S)-1-{[(3S)-4-(3-Hydroxyphenyl)-3-methylpiperazin-1-yl]methyl}-2-methylpropyl-4-(2-hydroxyphenoxy)benzamide Dihydrochloride]
μ, DAMGO Ke [1, 4]: 125 ± 10 nM
δ, DPDPE Ke [2, 5]: 960 ± 224 nM
κ, U69,593 Ke [3, 6]: 1.06 ± 0.26 nM

SMILES: CC(C)[C@@H](CN1CCN(c2cccc(O)c2)[C@@H](C)C1)NC(=O)c1ccc(Oc2cccc(O)c2)cc1.Cl.Cl [Compound 6i, N-(1S)-1-{[(3S)-4-(3-Hydroxyphenyl)-3-methylpiperazin-1-yl]methyl}-2-methylpropyl-4-(3-hydroxyphenoxy)benzamide Dihydrochloride]
μ, DAMGO Ke [1, 4]: 69 ± 14 nM
δ, DPDPE Ke [2, 5]: 625 ± 121 nM
κ, U69,593 Ke [3, 6]: 1.85 ± 0.51 nM
δ/κ [3]: 338
μ/κ [3]: 37

SMILES: COc1ccc(Oc2ccc(C(=O)N[C@H](CN3CCN(c4cccc(O)c4)[C@@H](C)C3)C(C)C)cc2)cc1.Cl.Cl [Compound 6j, N-(1S)-1-{[(3S)-4-(3-Hydroxyphenyl)-3-methylpiperazin-1-yl]methyl}-2-methylpropyl-4-(4-methoxyphenoxy)benzamide Dihydrochloride]
μ, DAMGO Ke [1, 4]: 17 ± 5 nM
δ, DPDPE Ke [2, 5]: 1383 ± 1049 nM
efficacy for the κ opioid receptor in words [3]: high efficacy (low Ke values)
κ, U69,593 Ke [3, 6]: 0.60 ± 0.19 nM
δ/κ [3]: 2305
μ/κ [3]: 28

SMILES: Cc1cc(C(=O)N[C@H](CN2CCN(c3cccc(O)c3)[C@@H](C)C2)C(C)C)ccc1Oc1ccccc1.Cl.Cl [Compound 6k, N-(1S)-1-{[(3S)-4-(3-Hydroxyphenyl)-3-methylpiperazin-1-yl]methyl}-2-methylpropyl-3-methyl-4-phenoxybenzamide Dihydrochloride]
μ, DAMGO Ke [1, 4]: 15 ± 2 nM
δ, DPDPE Ke [2, 5]: 435 ± 143 nM
efficacy for the κ opioid receptor in words [3]: high efficacy (low Ke values)
κ, U69,593 Ke [3, 6]: 0.63 ± 0.19 nM
δ/κ [3]: 691
μ/κ [3]: 24

SMILES: Cc1cccc(Oc2ccc(C(=O)N[C@H](CN3CCN(c4cccc(O)c4)[C@@H](C)C3)C(C)C)cc2Cl)c1.Cl.Cl [Compound 6l, 3-Chloro-N-[(2S)-1-[(3S)-4-(3-hydroxyphenyl)-3-methylpiperazin-1-yl]-3-methylbutan-2-yl]-4-(3-methylphenoxy)benzamide Dihydrochloride]
Kb [1, 7]: 0.043 ± 0.01 µM
melting point: 154 to 158 °C
Kb [2, 8]: 1.1 ± 0.262 µM
efficacy for the κ opioid receptor in words [3]: high efficacy (low Ke values)
Kb [3, 9]: 0.00029 ± 0.00013 µM

melting point: 179 to 183 °C
SMILES: Cc1ccc(O)c(Oc2ccc(C(=O)N[C@H](CN3CCN(c4cccc(O)c4)[C@@H](C)C3)C(C)C)cc2)c1.Cl.Cl [Compound 6m, 4-(2-Hydroxy-5-methylphenoxy)-N-[(2S)-1-[(3S)-4-(3-hydroxyphenyl)-3-methylpiperazin-1-yl]-3-methylbutan-2-yl]benzamide Dihydrochloride]

SMILES: CC(C)[C@@H](CN1CCN(c2cccc(O)c2)[C@@H](C)C1)NC(=O)c1ccc(Oc2ccccc2)cn1 [Compound 7a, N-(1S)-1-{[(3S)-4-(3-Hydroxyphenyl)-3-methylpiperazin-1-yl]methyl}-2-methylpropyl]-5-phenoxypyridine-2-carboxamide Trihydrochloride]
Kb [1, 7]: 0.101 ± 0.016 µM
Kb [2, 8]: 2.02 ± 0.678 µM
Kb [3, 9]: 0.0028 ± 0.0012 µM
δ/κ [3]: 723
μ/κ [3]: 36

SMILES: CC(C)[C@@H](CN1CCN(c2cccc(O)c2)[C@@H](C)C1)NC(=O)c1ccc(Oc2ccccc2)nc1.Cl.Cl.Cl [Compound 7b, N-[(2S)-1-[(3S)-4-(3-Hydroxyphenyl)-3-methylpiperazin-1-yl]-3-methylbutan-2-yl]-6-phenoxypyridine-3-carboxamide Trihydrochloride]
Kb [1]: 0.06 ± 0.011 µM
melting point: 168 to 170 °C
Kb [2]: 1.79 ± 0.063 µM
Kb [3]: 0.0016 ± 0.0003 µM
δ/κ [3]: 1119
μ/κ [3]: 38

SMILES: CC(C)[C@@H](CN1CCN(c2cccc(O)c2)[C@@H](C)C1)NC(=O)c1ccc(Oc2ccccc2F)cc1.Cl.Cl [Compound 19a, 4-(2-Fluorophenoxy)-N-[(1S)-1-{[(3S)-4-(3-hydroxyphenyl)-3-methylpiperazin-1-yl]methyl}-2-methylpropyl]benzamide Dihydrochloride]
Kb [1, 7]: 0.0211 ± 0.004 µM
melting point: 156 to 159 °C
Kb [2, 8]: 0.096 ± 0.018 µM
efficacy for the κ opioid receptor in words [3]: high efficacy (low Ke values)
Kb [3, 9]: 0.00076 ± 0.00021 µM
δ/κ [3]: 126
μ/κ [3]: 28

SMILES: CC(C)[C@@H](CN1CCN(c2cccc(O)c2)[C@@H](C)C1)NC(=O)c1ccc(Oc2cccc(C(F)(F)F)c2)cc1 [Compound 19b, N-[(1S)-1-{[(3S)-4-(3-Hydroxyphenyl)-3-methylpiperazin-1-yl]methyl}-2-methylpropyl]-4-[3-(trifluoromethyl)phenoxy]benzamide]
Kb [1]: 0.021 ± 0.0072 µM
melting point: 110 to 115 °C
Kb [2]: 0.054 ± 0.019 µM
Kb [3]: 0.0012 ± 0.00035 µM
δ/κ [3]: 45
μ/κ [3]: 18

SMILES: CC(C)[C@@H](CN1CCN(c2cccc(O)c2)[C@@H](C)C1)NC(=O)c1ccc(Oc2cccc(Cl)c2)cc1.Cl.Cl [Compound 19c, 4-(3-Chlorophenoxy)-N-[(1S)-1-{[(3S)-4-(3-hydroxyphenyl)-3-methylpiperazin-1-yl]methyl}-2-methylpropyl]benzamide Dihydrochloride]
Kb [1, 7]: 0.018 ± 0.0072 µM
melting point: 103 to 105 °C
Kb [2, 8]: 0.0083 ± 0.0009 µM
Kb [3, 9]: 0.00042 ± 5e-05 µM
δ/κ [3]: 20
μ/κ [3]: 43

SMILES: CC(C)[C@@H](CN1CCN(c2cccc(O)c2)[C@@H](C)C1)NC(=O)c1ccc(Oc2ccccc2O)c(Cl)c1.Cl.Cl [Compound 19n, 3-Chloro-4-(2-hydroxyphenoxy)-N-[(1)-1-{[(3S)-4-(3-hydroxyphenyl)-3-methylpiperazin-1-yl]methyl}-2-methylpropyl]benzamide Dihydrochloride]
μ, DAMGO Ke [1, 4]: 36 ± 9.2 nM
δ, DPDPE Ke [2, 5]: 210 ± 82 nM
κ, U69,593 Ke [3, 6]: 5.0 ± 0.82 nM
δ/κ [3]: 42
μ/κ [3]: 7
